Consider 4 compounds from patent US7326721B2 (Hypnion, Inc., priority 2003, dated 2008).

Data set [1] concerns the target T1, M1 muscarinic receptor (Homo sapiens, UniProt P11229).
T1 sequence (P11229 1-460): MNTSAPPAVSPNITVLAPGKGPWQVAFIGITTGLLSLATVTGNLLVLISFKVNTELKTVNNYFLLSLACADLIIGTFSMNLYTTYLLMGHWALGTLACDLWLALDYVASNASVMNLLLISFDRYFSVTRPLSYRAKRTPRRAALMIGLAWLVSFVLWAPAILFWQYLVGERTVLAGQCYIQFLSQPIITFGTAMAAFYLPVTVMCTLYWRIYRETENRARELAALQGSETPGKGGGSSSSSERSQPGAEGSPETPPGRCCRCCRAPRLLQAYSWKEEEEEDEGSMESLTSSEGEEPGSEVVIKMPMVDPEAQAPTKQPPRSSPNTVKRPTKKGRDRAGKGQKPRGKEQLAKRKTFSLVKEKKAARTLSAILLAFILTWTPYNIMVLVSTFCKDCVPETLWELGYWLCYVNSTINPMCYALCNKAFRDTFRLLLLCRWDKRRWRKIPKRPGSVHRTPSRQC
Also on record: purchased PerkinElmer, Inc., Wellesley, Mass; host or cells: CHO cells. The settings on record: reference compounds; read-out: Ki of reference compounds, M1 binding assay; cited from earlier work.

Data set [2] relates to adult male Wistar rats. The experiment in a line: SCORE-2000 sleep-wakefulness, locomotor activity and body temperature monitoring. The class given is in vivo, rat.
The target in data set [3] is T2, H1 histamine receptor (Bos taurus, UniProt P30546).
T2 construct: the receptors were obtained from bovine cerebellar membrane tissue; from tissue; host or cells: bovine cerebellar membranes
The experiment in a line: Histamine H1 competitive binding assay ([3H]pyrilamine). The arrangement: species or system bovine. The settings on record: bovine receptor; read-out: H1 binding.

The target in data set [4] is T1, M1 muscarinic receptor. Briefly: Muscarinic M1 binding assay ([3H]-scopolamine, N-methyl chloride).
Data set [5] addresses T3, M2 muscarinic receptor (Homo sapiens, UniProt P08172).
T3 sequence (P08172 1-466): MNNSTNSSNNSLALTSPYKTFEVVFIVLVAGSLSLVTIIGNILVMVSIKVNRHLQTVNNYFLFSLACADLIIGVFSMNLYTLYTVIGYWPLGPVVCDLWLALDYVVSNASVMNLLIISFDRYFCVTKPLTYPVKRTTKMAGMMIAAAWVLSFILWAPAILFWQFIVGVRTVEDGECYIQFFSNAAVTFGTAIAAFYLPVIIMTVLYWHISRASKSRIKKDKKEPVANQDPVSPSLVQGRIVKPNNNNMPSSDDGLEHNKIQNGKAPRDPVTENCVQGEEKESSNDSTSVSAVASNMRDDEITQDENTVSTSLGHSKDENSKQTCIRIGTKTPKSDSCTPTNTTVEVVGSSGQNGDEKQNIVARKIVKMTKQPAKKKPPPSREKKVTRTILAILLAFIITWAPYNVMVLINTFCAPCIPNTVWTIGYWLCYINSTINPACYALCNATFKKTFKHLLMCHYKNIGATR
Briefly: Muscarinic M2 binding assay.

Data set [6] concerns the target Adrenergic, Alpha 1, Non-selective. The experiment in a line: Table 12 panel: Adrenergic, Alpha 1. The class given is binding. The note with it: read-out: α1 binding.
Data set [7] deals with Adrenergic, Alpha 2, Non-selective. The experiment in a line: Table 12 panel: Adrenergic, Alpha 2. The settings on record: read-out: α2 binding. The class given is binding.
The target of data set [8] is human H1 receptor (Homo sapiens, UniProt P35367). Briefly: H1(hR) binding (Table 28). On the procedure:
(§1) The comparative data is shown in Table 28, unless otherwise noted, binding was measured with the bovine receptors, H1(hR) is the human H1 receptor, 5HT2a (h) is the human 5HT2a receptor. Binding numbers are presented in nM values.

Data set [9] concerns the target human 5HT2a receptor (Homo sapiens, UniProt P28223). The experiment in a line: 5HT2a (h) binding (Table 28).
The target of data set [10] is Dopamine, D1 (UniProt P21728). Briefly: Dopamine, D1 (human recombinant) binding assay.
Data set [11] addresses Dopamine, D1 (human recombinant) (UniProt P14416). The experiment in a line: Dopamine D2 binding assay (printed as D1 in b555). On the procedure: In vitro binding assays are used to determine H1 binding (i.e., primary target binding) and M1, M2 and M3 binding (i.e., off target binding). […] Similar assays are performed with H1 and dopamine receptors (D1 and D2), and with H1 and adrenergic receptors (α1 and α2).
Dopamine, D1 (human recombinant) binding assay was performed according to published procedures. See, e.g., Jarvie, et al. J. Recept Res., 13(1–4): 573–90 (1993); and Gundlach, et al. Life Sciences, 35(19): 1981–8 (1984) with modifications

Data set [12] deals with 5HT2a (rat) (Rattus norvegicus, UniProt P14842). The experiment in a line: 5HT2a (rat) binding (Table 28). The method, then: as §1
Data set [13] addresses hERG (Homo sapiens, UniProt Q12809).
For data set [14], the target named is M3 muscarinic receptor (Homo sapiens, UniProt P20309). Briefly: Muscarinic M3 binding assay.

The structures appear in SMILES notation. pKi: −log10 of the molar value. Read-outs that look alike come from different tables or passages of the source. A value given as a limit tells only on which side of the number the result lay.

Sequence of human H1 receptor (P35367 whole entry): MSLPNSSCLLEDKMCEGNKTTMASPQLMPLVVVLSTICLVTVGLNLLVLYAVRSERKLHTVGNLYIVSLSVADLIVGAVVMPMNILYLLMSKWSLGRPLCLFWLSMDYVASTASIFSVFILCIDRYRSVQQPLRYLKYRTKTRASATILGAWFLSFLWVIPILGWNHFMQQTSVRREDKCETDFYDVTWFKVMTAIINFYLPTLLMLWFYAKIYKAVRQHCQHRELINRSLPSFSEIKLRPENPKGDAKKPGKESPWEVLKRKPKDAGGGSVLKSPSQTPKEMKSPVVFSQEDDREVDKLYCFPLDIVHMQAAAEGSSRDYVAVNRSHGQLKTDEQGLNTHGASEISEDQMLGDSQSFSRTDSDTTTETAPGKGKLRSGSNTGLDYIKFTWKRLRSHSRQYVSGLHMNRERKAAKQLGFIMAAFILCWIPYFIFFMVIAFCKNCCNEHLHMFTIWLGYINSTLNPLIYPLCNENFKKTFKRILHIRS
T2 sequence (P30546 whole entry): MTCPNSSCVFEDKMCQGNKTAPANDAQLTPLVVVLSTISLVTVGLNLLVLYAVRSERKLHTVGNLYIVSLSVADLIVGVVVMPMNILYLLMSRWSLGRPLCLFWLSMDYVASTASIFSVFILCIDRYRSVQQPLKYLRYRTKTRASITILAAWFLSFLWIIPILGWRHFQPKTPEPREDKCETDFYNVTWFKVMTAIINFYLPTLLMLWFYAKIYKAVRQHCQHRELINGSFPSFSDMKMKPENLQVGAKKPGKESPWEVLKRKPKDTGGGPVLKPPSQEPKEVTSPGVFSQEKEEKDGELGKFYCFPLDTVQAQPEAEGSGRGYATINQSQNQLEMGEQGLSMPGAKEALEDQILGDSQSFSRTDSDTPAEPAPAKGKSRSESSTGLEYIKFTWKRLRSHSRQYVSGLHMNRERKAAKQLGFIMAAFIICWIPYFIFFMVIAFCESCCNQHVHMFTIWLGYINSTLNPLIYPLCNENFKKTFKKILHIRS
Sequence of 5HT2a (rat) (P14842 whole entry): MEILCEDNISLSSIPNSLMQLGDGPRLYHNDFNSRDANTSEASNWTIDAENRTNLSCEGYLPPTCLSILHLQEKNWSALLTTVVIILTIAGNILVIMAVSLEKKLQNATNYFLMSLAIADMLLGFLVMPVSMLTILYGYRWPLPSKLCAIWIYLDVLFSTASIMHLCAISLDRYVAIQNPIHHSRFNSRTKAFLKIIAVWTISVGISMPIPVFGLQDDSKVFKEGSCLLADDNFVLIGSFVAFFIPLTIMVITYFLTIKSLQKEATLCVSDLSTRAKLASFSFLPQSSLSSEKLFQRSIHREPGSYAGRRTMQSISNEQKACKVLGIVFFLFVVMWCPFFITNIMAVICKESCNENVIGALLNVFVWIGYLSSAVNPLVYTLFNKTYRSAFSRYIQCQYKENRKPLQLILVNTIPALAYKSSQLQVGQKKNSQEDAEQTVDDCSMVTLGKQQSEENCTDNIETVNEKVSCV
Sequence of human 5HT2a receptor (P28223 whole entry): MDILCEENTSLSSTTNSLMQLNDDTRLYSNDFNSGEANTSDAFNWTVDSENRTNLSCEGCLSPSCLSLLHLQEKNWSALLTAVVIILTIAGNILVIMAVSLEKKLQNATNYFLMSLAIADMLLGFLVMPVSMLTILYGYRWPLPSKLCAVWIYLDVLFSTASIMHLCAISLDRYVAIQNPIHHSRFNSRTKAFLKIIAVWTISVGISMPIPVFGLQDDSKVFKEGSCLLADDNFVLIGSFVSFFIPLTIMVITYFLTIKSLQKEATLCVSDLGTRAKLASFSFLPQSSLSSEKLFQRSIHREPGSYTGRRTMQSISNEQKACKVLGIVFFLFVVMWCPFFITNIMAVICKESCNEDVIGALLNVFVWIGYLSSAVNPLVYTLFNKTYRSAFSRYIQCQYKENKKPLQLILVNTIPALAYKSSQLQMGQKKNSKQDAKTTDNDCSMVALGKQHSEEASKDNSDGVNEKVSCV
Sequence of hERG (Q12809 whole entry): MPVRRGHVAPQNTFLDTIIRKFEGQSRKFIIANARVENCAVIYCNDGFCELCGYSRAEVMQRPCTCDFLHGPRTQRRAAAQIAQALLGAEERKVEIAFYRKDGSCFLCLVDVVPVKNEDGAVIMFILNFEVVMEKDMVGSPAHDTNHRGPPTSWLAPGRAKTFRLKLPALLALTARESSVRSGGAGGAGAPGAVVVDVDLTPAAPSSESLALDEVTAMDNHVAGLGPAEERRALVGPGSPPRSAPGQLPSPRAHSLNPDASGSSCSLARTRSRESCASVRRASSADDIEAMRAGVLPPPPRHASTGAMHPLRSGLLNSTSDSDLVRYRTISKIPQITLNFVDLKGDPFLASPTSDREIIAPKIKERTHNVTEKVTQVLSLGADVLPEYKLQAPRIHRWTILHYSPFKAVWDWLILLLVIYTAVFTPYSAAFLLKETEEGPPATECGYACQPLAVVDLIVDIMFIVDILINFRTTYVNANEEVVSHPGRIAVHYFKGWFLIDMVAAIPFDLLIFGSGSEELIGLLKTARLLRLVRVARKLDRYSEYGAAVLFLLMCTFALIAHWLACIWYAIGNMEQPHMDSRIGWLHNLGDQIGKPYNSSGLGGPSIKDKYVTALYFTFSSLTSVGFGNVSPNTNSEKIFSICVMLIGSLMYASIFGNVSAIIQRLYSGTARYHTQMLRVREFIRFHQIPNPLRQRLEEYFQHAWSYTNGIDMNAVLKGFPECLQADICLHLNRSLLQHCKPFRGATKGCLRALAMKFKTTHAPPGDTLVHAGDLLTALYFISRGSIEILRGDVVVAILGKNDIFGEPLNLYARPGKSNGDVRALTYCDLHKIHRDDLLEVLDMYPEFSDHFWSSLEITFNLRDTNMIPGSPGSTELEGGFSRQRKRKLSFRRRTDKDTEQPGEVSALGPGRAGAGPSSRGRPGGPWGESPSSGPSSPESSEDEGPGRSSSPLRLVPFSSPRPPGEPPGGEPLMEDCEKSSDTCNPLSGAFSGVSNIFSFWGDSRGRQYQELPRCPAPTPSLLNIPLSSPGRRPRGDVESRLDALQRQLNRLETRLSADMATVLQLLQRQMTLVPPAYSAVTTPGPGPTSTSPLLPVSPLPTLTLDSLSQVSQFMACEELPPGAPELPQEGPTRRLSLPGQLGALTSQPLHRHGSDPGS
Sequence of M3 muscarinic receptor (P20309 whole entry): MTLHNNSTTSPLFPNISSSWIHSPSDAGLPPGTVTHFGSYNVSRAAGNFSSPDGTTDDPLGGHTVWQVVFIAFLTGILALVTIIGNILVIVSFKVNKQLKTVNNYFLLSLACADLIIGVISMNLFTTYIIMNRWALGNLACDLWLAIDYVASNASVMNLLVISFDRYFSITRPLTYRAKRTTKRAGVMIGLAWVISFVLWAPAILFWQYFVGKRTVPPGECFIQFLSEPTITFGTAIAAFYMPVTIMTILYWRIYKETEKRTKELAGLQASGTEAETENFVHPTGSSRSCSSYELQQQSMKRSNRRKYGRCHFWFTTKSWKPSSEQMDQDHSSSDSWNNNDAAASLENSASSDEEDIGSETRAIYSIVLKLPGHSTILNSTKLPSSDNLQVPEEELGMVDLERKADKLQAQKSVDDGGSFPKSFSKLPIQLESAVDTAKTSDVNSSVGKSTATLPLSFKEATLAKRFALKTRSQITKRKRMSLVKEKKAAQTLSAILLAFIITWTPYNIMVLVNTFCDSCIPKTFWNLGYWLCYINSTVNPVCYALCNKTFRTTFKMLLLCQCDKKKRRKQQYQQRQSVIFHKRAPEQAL

Take `C[N+]1(C)CCC(OC(=O)C(c2ccccc2)c2ccccc2)CC1` [4-DAMP methiodide]: the pKi in [1] was 9.57.
As for `COc1ccc2c(c1)COc1ccc(F)cc1C2=C1CCN(CCC(=O)O)CC1` [Compound 10518], the “LUSB 3 mg/kg” value in [2] was determined as 6.7 ± 2.3. The “LUSB 10 mg/kg” value in data set [2] is given as 7.9 ± 1.7. Besides, in [2], the “NREM cumul. 10 mpk” value turned out to be 46 ± 7. For the same compound, the pKi is 7.28 in [3]; less than 5.00 in data set [4]; less than 5.00 in data set [5]; 5.55 in data set [6]; less than 5.00 in data set [7]; 7.46 in [8]. Further, the pKi in data set [9] was 6.37; in [10], less than 5.00; in data set [11], less than 5.00; in data set [12], 6.71. In data set [13] (human, 10 µM, pH 7.4), this compound registered an HERG of 3.90%.
Regarding `COc1ccc2c(c1)COc1ccc(F)cc1C2=C1CCN(CC2(C(=O)O)CC2)CC1` [Compound 10519], the pKi in data set [3] was 7.70; in data set [4] it was less than 5.00; in data set [5] it was less than 5.00; in data set [14] it was less than 5.00; in data set [6], less than 5.00; in data set [7] it was less than 5.00. For the same compound, the pKi in [8] is 7.47; in [9], 6.27; in data set [10], less than 5.00; in [12] it was 7.25. In data set [13], this compound returned an HERG of 6.10%.
For `COc1ccc2c(c1)COc1ccc(F)cc1C2=C1CCN(CCCC(=O)O)CC1` [Compound 10520], in data set [2], the “LUSB 3 mg/kg” value was determined as 4.9 ± 1.7. Also, the “LUSB 10 mg/kg” value in [2] is on record as 10.0 ± 2.2. Besides, the “NREM cumul. 10 mpk” value in data set [2] is 41 ± 8. Besides, the pKi in data set [3] is 7.65; in data set [4] it was less than 5.00; in [5], less than 5.00; in data set [14] it was less than 5.00; in [6], 5.96; in [7] it was less than 5.00. The pKi is 7.37 in data set [8]; 6.40 in [9]; less than 5.00 in [10]; less than 5.00 in [11]; 7.25 in data set [12]. Besides, the HERG in data set [13] (human, 10 µM, pH 7.4) is reported as 56.00%.
